Experimental data reported in patent US20120142596A1, “AGENT FOR STIMULATING MOBILIZATION OF ENDOTHELIAL PROGENITOR CELLS” (priority 2009, published 2012).

B1: G-CSF: positive control, CJ Pharma Leukokine Inj. 150; known EPC mobilization factor (protein, UniProt P09919 31-207, looked up)
Granulocyte …: TPLGPASSLPQSFLLKCLEQVRKIQGDGAALQEKLVSECATYKLCHPEELVLLGHSLGIPWAPLSSCPSQALQLAGCLSQLHSGLFLYQGLLQALEGISPELGPTLDTLQLDVADFATTIWQQMEELGMAPALQPTQGAMPAFASAFQRRAGGVLVASHLQSFLEVSYRVLRHLAQP

Key:
[1] = test system: endothelial progenitor cells; experiment: EPC mobilization to peripheral blood after intravenous administration (EPC colony count); format: in vivo, New Zealand white rabbits; conditions: rabbit, 5 nmole/kg i.v. twice (0 and 24 h), blood 3 days after first injection, 2 weeks culture, vs PBS control
Procedure: Ketamine hydrochloride (50 mg/ml Yuhan, Korea) and Rompun (xylazine hydrochloride, 23.32 mg/ml Bayer Korea) were mixed at a ratio of 2:1, and then 900 μl of the mixture (600 μl of ketamine hydrochloride and 300 μl of Rompun) was injected intramuscularly into New Zealand white rabbits (male, 2.5 kg, n=3). 10 minutes after the intramuscular injection, the same anesthetic (200 μl of ketamine hydrochloride and 100 μl of Rompun) was injected intravenously into the ear vein of each rabbit to completely anesthetize the rabbits. Then, 5 nmole/kg of SP was dissolved in physiological saline solution, and 1 ml of the solution was administered slowly into the ear vein of one rabbit group. As a control, 1 ml of 1×PBS was administered into the ear vein of another rabbit group. 24 hours after the administration, the same amount of each of SP and 1×PBS was injected once more.
3 days after the first injection, peripheral blood was collected from the ear blood vessels of the rabbits, and 10 ml of the collected blood was two-fold diluted in PBS, and then carefully placed on Ficoll contained in a tube (Ficoll: peripheral blood=1:1 v/v). Next, the blood dilution was centrifuged at 2200 rpm for 25 minutes. As a result, a red blood cell (RBC) layer, a ficoll layer, a mononuclear cell layer and a plasma layer, from bottom to top, were formed. […]

[2] = test system: endothelial progenitor cells; experiment: EPC CFU in bone marrow aspirate after intra-bone marrow administration; format: in vivo, New Zealand white rabbits; conditions: rabbit, intra-bone marrow injection, bone marrow aspirate 24 hours after injection, 1 week culture; for increase in amount of mobilized EPCs (CFU) compared to negative control group: SP 4 nmole/kg, G-CSF 2.5 μg/kg
Procedure: Ketamine hydrochloride (50 mg/ml Yuhan, Korea) and Rompun (xylazine hydrochloride, 23.32 mg/ml Bayer Korea) were mixed at a ratio of 2:1, and then 900 μl of the mixture (600 μl of ketamine hydrochloride and 300 μl of Rompun) was injected intramuscularly into New Zealand white rabbits (male, 2.5 kg, n=4). 5 minutes after the intramuscular injection, the same anesthetic (200 μl of ketamine hydrochloride and 100 μl of Rompun) was injected intravenously into the ear of each rabbit to completely anesthetize the rabbits.
SP (Sigma, 4 nmole/kg in saline) was injected into the right iliac crest of one rabbit group at an injection volume of 0.1 ml using a 18G spinal needle.
As a negative control, 1×PBS was injected into the left iliac crest of another rabbit group at an injection volume of 0.1 ml using a 18G spinal needle. As a positive control, G-CSF (CJ Pharma Leukokine Inj. 150; 2.5 μg/kg) was injected into the right iliac crest at an injection volume of 0.1 ml using a 18G spinal needle.
24 hours after the injection, 4 ml of a bone marrow aspirate was isolated from the bone marrow, two-fold diluted in PBS, and then carefully placed on Ficoll (GE Health care) contained in a tube (Ficoll: bone marrow aspirate=1:1 v/v). Then, the cell dilution was centrifuged at 2200 rpm for 25 minutes. As a result, a red blood cell layer, a ficoll layer, a mononuclear cell layer and a plasma layer, from bottom to top, were formed. After removing the plasma layer, only the mononuclear cell layer was separated and transferred into a new tube. 30 ml of PBS was added to the obtained mononuclear cell layer and centrifuged again (washing step).
The isolated cells were seeded on a 100-mm dish (Falcon) coated with fibronectin and were cultured in EGM-2 (Endothelial growth medium-2, Lonza) for 1 week (5% CO2 and 37° C.). After the culture, the CFU of the cells was measured and compared with those of the group injected with PBS and the group injected with the positive control G-CSF.

EPCs [3] = experiment: Immunohistochemical staining of cells cultured from peripheral blood with EPC markers CD34 and UEA; format: cell-based, New Zealand white rabbits; conditions: cells cultured from peripheral blood after intravenous SP, fluorescence microscopy
Procedure: In order to examine the presence of EPCs in peripheral blood using the EPC markers CD34 and UEA, EPCs (2×10^4 cells/well) that have been isolated and cultured from the above blood were incubated on cover slips for CD34 test and UEA test, respectively. After incubation in a 5% CO2 incubator at 37° C. for 24 hours, the cells were washed with PBS. Then, the cells were fixed with 3.7% paraformaldehyde and washed again with PBS.
The washed cells were blocked with 20% goat serum and treated with anti-CD 34 antibody at room temperature for 1 hour. Then, the cells were washed again with PBS and treated with FITC-conjugated anti-mouse IgG at room temperature for 1 hour. To remove excess of antibodies, the cells were washed with PBS, counterstained with DAPI, and then mounted.
The washed cells were blocked with 20% goat serum and treated with UEA-biotin at room temperature for 1 hour. Then, the cells were washed again with PBS and treated with streptavidin-FITC at room temperature for 1 hour. The cells were washed with PBS, counterstained with DAPI, and then mounted.
For negative control in immune fluorescence staining, cultured cells were treated with only secondary antibody, and the expression thereof was observed (FIG. 2C).

EPCs [4] = experiment: Ability to form tubes in vitro on Matrigel of EPCs cultured from blood after SP; format: cell-based, New Zealand white rabbits; conditions: EPCs from peripheral blood after intravenous SP, 12 hours
Procedure: In order to examine the blood vessel-forming ability of the EPCs that have been isolated and cultured from the blood, the cells were cultured on Matrigel (BD). For this purpose, 200 μl of Matrigel was added to each well of a 96-well plate and incubated at 37° C. for 30 minutes. The cells were added to each well containing Matrigel at a density of 2×10^4 and cultured for 12 hours. When mesenchymal stem cells (MSCs) were cultured in the same manner as described above, colonies were formed as shown in FIG. 4B.

[5] = test system: inflammatory cells (neutrophils, eosinophils and monocytes); experiment: Complete blood cell count of peripheral blood after intra-bone marrow administration; format: in vivo, New Zealand white rabbits; conditions: rabbit, intra-bone marrow administration, 1, 2 and 3 days
[6] = test system: endothelial progenitor cells; experiment: Comparison of EPC colony formation in peripheral blood after intravenous administration of SP and G-CSF; format: in vivo, New Zealand white rabbits; conditions: rabbit
Procedure: (§1) According to the same method described in Example 1-(1), 0.1 ml of SP was administered to one rabbit group (New Zealand white rabbits, male, 2.5 kg, n=3), and 0.1 ml of G-CSF (CJ Pharma, Leukokine inj. 150; 2.5 μg/kg) as a positive control was administered to another rabbit group (New Zealand white rabbits, male, 2.5 kg, n=3). 1, 2 and 3 days after the administration, 5-15 ml of peripheral blood was isolated from each animal group. The isolated blood was two-fold diluted in PBS and carefully placed on Ficoll contained in a tube (Ficoll: peripheral blood=1:1 v/v). Then, the cell dilution was centrifuged at 2200 rpm for 25 minutes. The uppermost plasma layer was removed, and only the mononuclear cell layer was separated from the tube and transferred into a new tube. 30 ml of PBS was added to the obtained mononuclear cell layer and centrifuged at 1500 rpm for 5 minutes (washing step). The cells were suspended in EGM-2 (endothelial growth medium-2, Lonza), and the suspended cells were seeded on a 100-mm dish (Falcon) coated with fibronectin and were cultured in EGM-2 (endothelial growth medium-2, Lonza) for 2 weeks (5% CO2 and 37° C.). After the culture, the produced colonies were stained with toluidine blue and counted.

[7] = test system: endothelial progenitor cells; experiment: Comparison of EPC colony formation in peripheral blood after intra-bone marrow administration of SP and G-CSF; format: in vivo, New Zealand white rabbits; conditions: rabbit, intra-bone marrow administration, 1, 2 and 3 days, compared to G-CSF
Procedure: as §1, with “2-(2),” for “1-(1),”

[8] = test system: inflammatory cells (neutrophils and monocytes); experiment: Complete blood cell count of peripheral blood after intravenous administration; format: in vivo, New Zealand white rabbits; conditions: rabbit, intravenous administration, 1, 2 and 3 days, vs PBS control
Procedure: 1 ml of each of the peripheral bloods obtained 1, 2 and 3 days after intravenous administration of SP and G-CSF was placed in an EDTA-containing vial and mixed well to prevent clotting. In the experiment for isolating EPCs from blood cells, the complete blood cell counting of each blood was performed by Royal ARC (Korea) under the same conditions for each blood.

Molecule | amount of EPCs in peripheral blood (colonies) [1] | increase in amount of mobilized EPCs (CFU) compared to group administered with positive control G-CSF [2] | increase in amount of mobilized EPCs (CFU) compared to negative control group [2] | presence of EPCs in peripheral blood by EPC markers CD34 and UEA (EPCs [3]) | ability to form tubes in vitro (EPCs [4]) | inflammatory cells (neutrophils, eosinophils and monocytes) in peripheral blood [5] | amount of EPCs in peripheral blood over 1, 2 and 3 days ([6]; days 1-3) | effect of stimulating EPC mobilization (EPC colonies in peripheral blood) [7] | inflammatory cells (neutrophils and monocytes) in peripheral blood [8] | EPCs in peripheral blood after the second day ([6]; after the second day) | EPCs in peripheral blood at the first day ([6]; day 1)
Substance-P [SP] | significantly increased | about 3 fold | 10-12 fold | contained a large amount of EPCs | had the ability to form blood vessels | without causing side effects such as inflammation | continuously increased | excellent effect of stimulating EPC mobilization compared to G-CSF |  |  | 
B1 |  |  | about 4 fold |  |  | significantly increased |  |  | significantly increased | no EPCs were found | temporarily increased
